Source: ChEMBL document CHEMBL1152667, “Synthesis and radiopharmacological investigation of 3-[4'-[(18)F]fluorobenzylidene]indolin-2-one as possible tyrosine kinase inhibitor” (Bioorg Med Chem, 2009)

Key:
cells = details: Endothelial cell
[1] = target: Vascular endothelial growth factor receptor 2 (Homo sapiens, UniProt P35968); test: Inhibition of FLK1
Vascular endothelial growth factor receptor 2, sequence (P35968 whole entry): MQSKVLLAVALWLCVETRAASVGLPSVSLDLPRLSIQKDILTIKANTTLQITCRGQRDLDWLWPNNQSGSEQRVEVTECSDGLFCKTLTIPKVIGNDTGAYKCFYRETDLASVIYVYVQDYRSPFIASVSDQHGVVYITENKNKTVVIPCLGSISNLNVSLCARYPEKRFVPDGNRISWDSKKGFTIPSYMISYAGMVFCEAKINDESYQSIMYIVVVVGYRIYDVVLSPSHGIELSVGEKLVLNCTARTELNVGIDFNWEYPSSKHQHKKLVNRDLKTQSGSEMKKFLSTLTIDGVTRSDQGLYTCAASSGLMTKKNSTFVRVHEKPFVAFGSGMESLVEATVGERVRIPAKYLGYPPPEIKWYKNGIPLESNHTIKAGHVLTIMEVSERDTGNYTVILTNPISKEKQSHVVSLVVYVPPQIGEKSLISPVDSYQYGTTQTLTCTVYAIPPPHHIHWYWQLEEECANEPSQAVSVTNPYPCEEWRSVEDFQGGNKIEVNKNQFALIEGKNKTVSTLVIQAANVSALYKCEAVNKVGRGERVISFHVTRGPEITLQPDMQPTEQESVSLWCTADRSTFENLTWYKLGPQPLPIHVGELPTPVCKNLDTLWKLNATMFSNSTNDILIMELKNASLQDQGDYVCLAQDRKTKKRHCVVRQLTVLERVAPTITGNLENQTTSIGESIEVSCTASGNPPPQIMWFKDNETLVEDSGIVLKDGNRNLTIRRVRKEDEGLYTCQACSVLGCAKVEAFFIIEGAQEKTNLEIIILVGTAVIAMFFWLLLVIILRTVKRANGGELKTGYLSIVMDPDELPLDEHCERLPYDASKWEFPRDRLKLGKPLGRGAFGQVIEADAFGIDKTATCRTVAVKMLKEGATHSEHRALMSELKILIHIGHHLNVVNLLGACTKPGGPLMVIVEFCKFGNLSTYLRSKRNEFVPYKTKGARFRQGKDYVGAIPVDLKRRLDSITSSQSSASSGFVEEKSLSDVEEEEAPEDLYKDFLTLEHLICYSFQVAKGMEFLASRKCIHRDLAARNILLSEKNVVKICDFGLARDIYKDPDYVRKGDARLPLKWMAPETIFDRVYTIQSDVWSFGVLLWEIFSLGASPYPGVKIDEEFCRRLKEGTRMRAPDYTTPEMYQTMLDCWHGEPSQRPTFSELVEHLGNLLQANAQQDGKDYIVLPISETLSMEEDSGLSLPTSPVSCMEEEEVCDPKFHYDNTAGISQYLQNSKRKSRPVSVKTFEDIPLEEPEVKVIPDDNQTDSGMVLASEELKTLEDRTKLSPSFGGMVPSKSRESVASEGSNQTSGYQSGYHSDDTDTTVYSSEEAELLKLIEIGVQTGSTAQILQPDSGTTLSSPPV

O=C1Nc2ccccc2/C1=C/c1ccc(F)cc1
IC50 (cells): 5.1 µM | IC50 [1]: 9.6 µM

Cc1cc(C)c(/C=C2\C(=O)Nc3ccccc32)[nH]1 [SEMAXANIB]
IC50 (cells): < 0.8 µM
